From patent US10183940B2, “Aryl and heteroaryl-fused tetrahydro-1,4-oxazepine amides as somatostatin receptor subtype 4 (SSTR4) agonists” (Boehringer Ingelheim International GmbH, priority 2014, dated 2019)

Legend:
[1] = target: human Somatostatin 4 receptor (SSTR4) (Homo sapiens (Human), UniProt P31391); test: cAMP assay with human Somatostatin 4 receptor; format: cell-based; conditions: hSSTR4 expressing H4 cells, inhibition of Forskolin-stimulated cAMP; read-out: SSTR4 agonism EC50
Protocol: Method description for cAMP assay with human Somatostatin 4 receptor.
The activation of the SSTR4 receptor (Gi coupled) causes an inhibition of intracellular cAMP after stimulation with Forskolin, which can be quantifiable by use of a suitable assay Kit and an adequate plate reader. This technique is used to characterize pharmacological effects of the SSTR4 receptor agonists by use of hSSTR4 expressing H4 cells.
Compounds are dissolved and diluted in DMSO. The final test solution contains […]. The cAMP standard (Lance cAMP 384 Kit; PerkinElmer, Cat #AD0264) is prepared in assay buffer (HBSS with 0.1% BSA, 5 mM HEPES, […], pH 7.4) containing 1% DMSO and the cAMP standard curve is included at least on one plate. Cells are centrifuged and suspended in assay buffer (incl. 1:100 diluted Alexa antibody).
For the assay 5 μl of a cell suspension (approximately 5000 cells/well)—incl. Alexa antibody (diluted 1:100) are added into a 384 well MTP microtitre plate excepting one row or column (depending on the plate layout), which is reserved for the standard curve. Then 2 μl of compound sample is added as concentration response curve (e.g. 1e-5 M to 6e-10 M), usually in triplicates. Each assay contains incubations with vehicle controls instead of compound as controls for non-inhibited cAMP generation (100% CTL; ‘high values’) and incubations with 1 μM Somatosatin as controls for full inhibition and background (0% CTL; ‘low values’). After approximately 10-15 min incubation time 3 μl Forskolin (dissolved in DMSO, final conc. 15 μM) is added. Then the plates are shaken briefly and incubated for 60 min at room temperature. After 60 min 10 μl of the detection mix is added into all wells followed by an additional incubation period of 1 h. The plates are read in a suitable plate reader.
The analysis of the data is based on the “ratio” of the time-resolved fluorescence measurements of donor and acceptor fluorophore (Ex: 320 nm; Em1: 665 nm; Em2: 615 nm; ratio 665/615). From this ratio, cAMP concentrations are calculated from standard curve and the EC50 is estimated by least square curve fit program.

[2] = Metabolic stability in human liver microsomes; format: in vitro ADME; conditions: pooled human liver microsomes, 37° C., 1 μM test compound, NADPH; for half-life at 1 μM: pH 7.6, read-out: Half-life t1/2
Protocol: The metabolic stability of the compounds according to the invention may be investigated as follows:
The metabolic degradation of the test compound is assayed at 37° C. with pooled human liver microsomes. The final incubation volume of 100 μl per time point contains TRIS buffer pH 7.6 at room temperature (0.1 M), magnesium chloride (5 mM), microsomal protein (1 mg/mL) and the test compound at a final concentration of 1 μM. Following a short preincubation period at 37° C., the reactions are initiated by addition of beta-nicotinamide adenine dinucleotide phosphate, reduced form (NADPH, 1 mM), and terminated by transferring an aliquot into solvent after different time points. After centrifugation (10000 g, 5 min), an aliquot of the supernatant is assayed by LC-MS/MS for the amount of parent compound. The half-life is determined by the slope of the semi-logarithmic plot of the concentration-time profile.

human Somatostatin 4 receptor (SSTR4), sequence (P31391 whole entry): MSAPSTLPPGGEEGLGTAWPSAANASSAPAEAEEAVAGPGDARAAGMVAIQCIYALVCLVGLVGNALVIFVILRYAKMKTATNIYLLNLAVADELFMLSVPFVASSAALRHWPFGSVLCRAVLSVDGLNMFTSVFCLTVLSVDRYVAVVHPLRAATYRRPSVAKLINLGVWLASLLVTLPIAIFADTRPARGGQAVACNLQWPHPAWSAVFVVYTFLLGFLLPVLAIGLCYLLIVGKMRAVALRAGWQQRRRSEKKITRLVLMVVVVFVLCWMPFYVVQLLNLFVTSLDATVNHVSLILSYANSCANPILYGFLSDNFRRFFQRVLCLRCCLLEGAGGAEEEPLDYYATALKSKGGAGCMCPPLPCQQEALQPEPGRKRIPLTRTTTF

SMILES | EC50 [1] | half-life at 1 μM [2] | Half-life t1/2 [2]
Cc1nc2ccccn2c1C(C)(C)NC(=O)c1cccc2c1OCCNC2 [Example 69] | 0.0176 µM | – | –
Cn1nc(C(C)(C)NC(=O)c2cccc3c2OCCNC3)c2cccc(C(F)(F)F)c21 [Example 25] | 0.0068 µM | – | –
Cc1cccn2c(C(C)(C)NC(=O)c3cccc4c3OCCNC4)ccc12 [Example 71] | 0.0029 µM | 0.183 h | –
CC(C)(NC(=O)c1cncc2c1OCCNC2)c1noc2c(F)cccc12 [Example 37] | 1.59 µM | – | –
Cc1cccnc1OCC(C)(C)NC(=O)c1cccc2c1OCCNC2 [Example 15] | 0.0281 µM | – | –
CC(C)(NC(=O)c1cccc2c1OCCNC2)c1ncnc2c(F)cccc12 [Example 66] | 0.03 µM | – | –
Cc1cccn2c(C(C)(C)NC(=O)c3cccc4c3OCCNC4)nc(C)c12.Cl [Example 53] | 0.0016 µM | 1.2 h | –
Cc1cc2ccccc2c(C(C)(C)NC(=O)c2cccc3c2OCCNC3)n1 [Example 28] | 0.0042 µM | 0.5 h | –
CC(C)(NC(=O)c1cccc2c1OCCNC2)c1ncc2ccccn12.Cl [Example 13] | 0.0143 µM | > 2.17 h | –
CC(C)(NC(=O)c1cccc2c1OCCNC2)c1ccc(Cl)cc1.Cl [Example 17] | 0.0082 µM | 0.233 h | –
Cc1cccc2c(C(C)(C)NC(=O)c3cccc4c3OCCNC4)nn(C)c12 [Example 40] | 0.0022 µM | 0.517 h | –
CC(C)(NC(=O)c1cccc2c1OCCNC2)c1nc(C2CC2)c2c(F)cccn12 [Example 61] | 0.0063 µM | 0.75 h | –
CC(C)(NC(=O)c1cccc2c1OCCNC2)c1nc2ccc(Cl)cc2[nH]1 [Example 3] | 0.0451 µM | – | –
Cc1nc(C(C)(C)NC(=O)c2cccc3c2OCCNC3)c2cccc(F)c2n1 [Example 67] | 0.075 µM | – | –
Cc1cc2cccnc2c(C(C)(C)NC(=O)c2cccc3c2OCCNC3)n1 [Example 1] | 0.0581 µM | – | –
Cc1nc(C(C)(C)NC(=O)c2cccc3c2OCCNC3)c2ccccc2n1 [Example 64] | 0.0223 µM | > 2.17 h | –
Cc1cc2ccccc2c(C(C)(C)NC(=O)c2nccc3c2OCCNC3)n1 [Example 29] | 0.0199 µM | 0.45 h | –
CC(C)(NC(=O)c1cccc2c1OCCNC2)c1nc(C(F)(F)F)c2c(F)cccn12 [Example 63] | 0.0323 µM | – | –
Cc1cccn2c(C(C)(C)NC(=O)c3cccc4c3OCCNC4)cnc12 [Example 70] | 0.0113 µM | > 2.17 h | –
Cc1cccn2c(C3(NC(=O)c4nccc5c4OCCNC5)CC3)ncc12 [Example 73] | 0.0393 µM | – | –
Cc1ncc(C(C)(C)NC(=O)c2cccc3c2OCCNC3)c2ccccc12 [Example 27] | 0.0006 µM | > 2.17 h | –
Cc1cccn2c(C(C)(CC(C)C)NC(=O)c3cccc4c3OCCNC4)ncc12 (stereo not shown) [Example 56] | 1.98 µM | – | –
O=C(NC1(c2nc3ccc(Cl)cc3[nH]2)CCOC1)c1cccc2c1OCCNC2 (stereo not shown) [Example 5] | 0.751 µM | – | –
CC(NC(=O)c1cccc2c1OCCNC2)c1nc2ccccc2[nH]1 (stereo not shown) [Example 2] | 0.302 µM | – | –
CC(C)(NC(=O)c1cccc2c1OCCNC2)c1ccc(F)cc1 [Example 16] | 0.033 µM | – | –
Cn1nc(C(C)(C)NC(=O)c2cccc3c2OCCNC3)c2c(F)cccc21 [Example 22] | 0.008 µM | 0.7 h | –
CC(C)(NC(=O)c1nccc2c1OCCNC2)c1noc2c(F)cccc12 [Example 35] | 0.35 µM | – | –
CC(C)(NC(=O)c1cccc2c1OCCNC2)c1cccc2ncccc12 [Example 12] | 0.0984 µM | – | –
Cc1cccn2c(C(C)(NC(=O)c3cccc4c3OCCNC4)C3CC3)ncc12 (stereo not shown) [Example 55] | 0.134 µM | – | –
Cc1cccn2c(C3(NC(=O)c4cccc5c4OCCNC5)CCOC3)ncc12 (stereo not shown) [Example 57] | 0.354 µM | – | –

Further lines, results first:

EC50 [1] | half-life at 1 μM [2] | Half-life t1/2 [2] | SMILES
0.0226 µM | – | – | Cc1cccn2c(C(C)(C)NC(=O)c3nccc4c3OCCNC4)ccc12 [Example 77]
0.381 µM | – | – | CC(C)(NC(=O)c1ccnc2c1OCCNC2)c1noc2c(F)cccc12 [Example 36]
0.0944 µM | – | – | Cc1cccn2c([C@H](C)NC(=O)c3cccc4c3OCCNC4)ncc12 [Example 60]
0.145 µM | – | – | Cc1cccn2c(C(C)(C)NC(=O)c3nccc4c3OCCNC4)nc(C3CC3)c12 [Example 76]
0.0044 µM | 1.83 h | – | Cc1cccc2c(C(C)(C)NC(=O)c3cccc4c3OCCNC4)cnn12 [Example 24]
0.0022 µM | 1.45 h | – | CC(C)(NC(=O)c1cccc2c1OCCNC2)c1n[nH]c2c(F)cccc12 [Example 43]
0.0313 µM | > 2.17 h | – | Cc1cccn2c(C(C)(C)NC(=O)c3cncc4c3OCCNC4)ncc12 [Example 79]
0.037 µM | – | – | Cc1cc2ccccc2c(C(C)(C)NC(=O)c2cncc3c2OCCNC3)n1 [Example 31]
0.0028 µM | 0.317 h | – | C[C@H](NC(=O)c1cccc2c1OCCNC2)c1cccc2ccccc12.Cl [Example 9]
0.0029 µM | 0.583 h | – | CC(C)(NC(=O)c1cccc2c1OCCNC2)c1noc2c(Cl)cccc12 [Example 38]
0.0043 µM | – | 2.17 h | COc1cccn2c(C(C)(C)NC(=O)c3cccc4c3OCCNC4)ncc12 [Example 51]
0.0013 µM | > 2.17 h | – | CC(C)(NC(=O)c1cccc2c1OCCNC2)c1n[nH]c2c(Cl)cccc12 [Example 44]
0.0379 µM | – | – | Cc1cccn2c(C(C)(C)NC(=O)c3cccc4c3OCCNC4)nnc12 [Example 68]
0.0136 µM | > 2.17 h | – | Cc1cccn2c(C(C)(C)NC(=O)c3nccc4c3OCCNC4)ncc12 [Example 72]
0.0015 µM | 1.55 h | – | Cc1cccn2c(C3(NC(=O)c4cccc5c4OCCNC5)CC3)ncc12 [Example 49]
0.019 µM | – | – | Cc1cc2ccccc2c(C(C)(C)NC(=O)c2ccnc3c2OCCNC3)n1 [Example 30]
2.48 µM | – | – | Cc1cccn2c(C3(NC(=O)c4cccc5c4OCCNC5)CCOCC3)ncc12 [Example 58]

EC50 [1] | half-life at 1 μM [2] | Half-life t1/2 [2] | SMILES
0.0087 µM | – | – | Cc1cc(F)cn2c(C(C)(C)NC(=O)c3cccc4c3OCCNC4)ncc12 [Example 52]
0.132 µM | – | – | CC(C)(COc1cnccc1C(F)(F)F)NC(=O)c1cccc2c1OCCNC2 [Example 14]
0.0009 µM | 1.12 h | – | Cn1nc(C(C)(C)NC(=O)c2cccc3c2OCCNC3)c2ccc(F)cc21 [Example 23]
0.0336 µM | > 2.17 h | – | Cc1cccn2c(C(C)(C)NC(=O)c3ccnc4c3OCCNC4)ncc12 [Example 78]
0.0421 µM | – | – | CC(C)(NC(=O)c1cccc2c1OCCNC2)c1cccc2cccnc12 [Example 10]
0.0092 µM | > 2.17 h | – | CC(C)(NC(=O)c1cccc2c1OCCNC2)c1ncnc2ccccc12 [Example 46]
0.0028 µM | 0.9 h | – | Cc1cccc2c(C(C)(C)NC(=O)c3cccc4c3OCCNC4)noc12 [Example 32]
0.0092 µM | 1.83 h | – | Cc1cccc2c(C(C)(C)NC(=O)c3cccc4c3OCCNC4)ncnc12 [Example 45]
0.343 µM | – | – | O=C(NC1(c2nc3ccc(Cl)cc3[nH]2)CC1)c1cccc2c1OCCNC2 [Example 4]
0.0223 µM | 0.0733 h | – | CC(C)(NC(=O)c1cccc2c1OCCNC2)c1ccc(Cl)c(Cl)c1.Cl [Example 8]
0.0152 µM | – | – | Cc1cccn2c(C3(NC(=O)c4cccc5c4OCCNC5)CCC3)ncc12 [Example 54]
0.0182 µM | – | – | CC(C)(NC(=O)c1cccc2c1OCCNC2)c1noc2c(F)cccc12 [Example 34]
0.0305 µM | – | – | CC(C)(NC(=O)c1cccc2c1OCCNC2)c1ncc2c(OC(F)(F)F)cccn12 [Example 59]
0.0355 µM | – | – | Cn1nc(C(C)(C)NC(=O)c2cncc3c2OCCNC3)c2ccccc21 [Example 21]
0.106 µM | – | – | COc1cccn2c(C(C)(C)NC(=O)c3nccc4c3OCCNC4)ncc12 [Example 74]
0.423 µM | – | – | CC(C)(NC(=O)c1cccc2c1OCCNC2)c1cccc2cnccc12 [Example 11]
0.0214 µM | – | – | Cc1nc(C(C)(C)NC(=O)c2cccc3c2OCCNC3)c2cccc(C)c2n1 [Example 65]
